# Laboratory results: US8445676B2, “Pyrrolotriazine kinase inhibitors” (Bristol-Myers Squibb Company, priority 2008, dated 2013)
# pIC50: −log10 of the molar value. Where two headings read alike, the source gives them in different places.
# How the values were obtained:
# Type in all cases: biochemical
# JAK2 = JAK2 (Homo sapiens, UniProt O60674); assay: JAK2 Tyrosine Kinase Assay
# Summary of the method: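 Reaction of JAK2 with fluorescent substrate run 60 min at room temperature and stopped with EDTA. Substrate and phosphorylated product separated electrophoretically on a Caliper LabChip. Compounds tested at eleven concentrations in duplicate, with IC50 from non-linear regression.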
# JAK3 [1] = target: T1, JAK3 (Homo sapiens, UniProt P52333); assay: JAK3 Tyrosine Kinase Assay; conditions: prior-art compound, stated in the background; read-out: IC50 against JAK3
# T1 sequence (P52333 1-1124): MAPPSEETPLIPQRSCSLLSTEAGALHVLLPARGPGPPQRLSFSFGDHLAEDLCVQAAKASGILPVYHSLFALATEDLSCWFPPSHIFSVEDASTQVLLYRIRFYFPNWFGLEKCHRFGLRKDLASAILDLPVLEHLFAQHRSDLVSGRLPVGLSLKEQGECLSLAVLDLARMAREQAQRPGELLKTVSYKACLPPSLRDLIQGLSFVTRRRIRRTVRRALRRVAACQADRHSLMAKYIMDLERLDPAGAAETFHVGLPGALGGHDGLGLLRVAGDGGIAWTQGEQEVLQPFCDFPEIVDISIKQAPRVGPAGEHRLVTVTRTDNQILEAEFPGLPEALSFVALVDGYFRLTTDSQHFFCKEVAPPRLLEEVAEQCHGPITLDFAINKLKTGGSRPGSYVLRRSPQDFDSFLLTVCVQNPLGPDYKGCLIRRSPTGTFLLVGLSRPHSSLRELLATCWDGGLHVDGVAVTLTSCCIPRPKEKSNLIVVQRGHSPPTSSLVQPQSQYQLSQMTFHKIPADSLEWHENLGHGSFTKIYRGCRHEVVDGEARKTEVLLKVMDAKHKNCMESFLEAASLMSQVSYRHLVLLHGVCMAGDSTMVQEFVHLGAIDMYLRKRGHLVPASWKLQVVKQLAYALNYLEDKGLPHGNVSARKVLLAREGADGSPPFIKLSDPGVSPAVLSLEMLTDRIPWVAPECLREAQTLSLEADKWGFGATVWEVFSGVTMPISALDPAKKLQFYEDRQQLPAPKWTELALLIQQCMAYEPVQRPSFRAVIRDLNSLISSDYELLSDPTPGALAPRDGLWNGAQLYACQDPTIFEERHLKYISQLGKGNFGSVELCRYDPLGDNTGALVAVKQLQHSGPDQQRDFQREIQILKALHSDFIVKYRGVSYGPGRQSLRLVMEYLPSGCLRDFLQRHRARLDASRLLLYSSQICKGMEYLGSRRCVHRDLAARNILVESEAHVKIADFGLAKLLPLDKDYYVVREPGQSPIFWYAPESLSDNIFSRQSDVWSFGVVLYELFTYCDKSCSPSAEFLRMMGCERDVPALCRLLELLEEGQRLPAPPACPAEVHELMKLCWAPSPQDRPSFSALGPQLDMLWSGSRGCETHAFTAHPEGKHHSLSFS
# JAK3 [2] = target: T1, JAK3; assay: JAK3 Tyrosine Kinase Assay; conditions: ATP 8 μM; JAK3 2.5 nM; 60 min room temperature
# Description: JAK3 Tyrosine Kinase Assay
# The assays were performed in V-bottom 384-well plates. […] The reaction was initiated by the combination of JAK3 with substrates and test compounds. The reaction was incubated at room temperature for 60 min. and terminated by adding 45 μl of 35 mM EDTA to each sample. The reaction mixture was analyzed on the Caliper LabChip 3000 by electrophoretic separation of the fluorescent substrate and phosphorylated product. […] The final concentration of reagents in the assays is ATP, 8 μM; JAK3 fluorescent peptide, 1.5 μM; JAK3, 2.5 nM; and DMSO, 1.6%. […] Compounds were dissolved at 10 mM in dimethylsulfoxide (DMSO) and evaluated at eleven concentrations, each in duplicate. IC50 values were derived by non-linear regression analysis.
# [3] = ATP 30 μM, JAK2 1 nM, 60 min room temperature, read-out: Jak2(IC50)
# Chain of JAK2 (O60674 whole entry): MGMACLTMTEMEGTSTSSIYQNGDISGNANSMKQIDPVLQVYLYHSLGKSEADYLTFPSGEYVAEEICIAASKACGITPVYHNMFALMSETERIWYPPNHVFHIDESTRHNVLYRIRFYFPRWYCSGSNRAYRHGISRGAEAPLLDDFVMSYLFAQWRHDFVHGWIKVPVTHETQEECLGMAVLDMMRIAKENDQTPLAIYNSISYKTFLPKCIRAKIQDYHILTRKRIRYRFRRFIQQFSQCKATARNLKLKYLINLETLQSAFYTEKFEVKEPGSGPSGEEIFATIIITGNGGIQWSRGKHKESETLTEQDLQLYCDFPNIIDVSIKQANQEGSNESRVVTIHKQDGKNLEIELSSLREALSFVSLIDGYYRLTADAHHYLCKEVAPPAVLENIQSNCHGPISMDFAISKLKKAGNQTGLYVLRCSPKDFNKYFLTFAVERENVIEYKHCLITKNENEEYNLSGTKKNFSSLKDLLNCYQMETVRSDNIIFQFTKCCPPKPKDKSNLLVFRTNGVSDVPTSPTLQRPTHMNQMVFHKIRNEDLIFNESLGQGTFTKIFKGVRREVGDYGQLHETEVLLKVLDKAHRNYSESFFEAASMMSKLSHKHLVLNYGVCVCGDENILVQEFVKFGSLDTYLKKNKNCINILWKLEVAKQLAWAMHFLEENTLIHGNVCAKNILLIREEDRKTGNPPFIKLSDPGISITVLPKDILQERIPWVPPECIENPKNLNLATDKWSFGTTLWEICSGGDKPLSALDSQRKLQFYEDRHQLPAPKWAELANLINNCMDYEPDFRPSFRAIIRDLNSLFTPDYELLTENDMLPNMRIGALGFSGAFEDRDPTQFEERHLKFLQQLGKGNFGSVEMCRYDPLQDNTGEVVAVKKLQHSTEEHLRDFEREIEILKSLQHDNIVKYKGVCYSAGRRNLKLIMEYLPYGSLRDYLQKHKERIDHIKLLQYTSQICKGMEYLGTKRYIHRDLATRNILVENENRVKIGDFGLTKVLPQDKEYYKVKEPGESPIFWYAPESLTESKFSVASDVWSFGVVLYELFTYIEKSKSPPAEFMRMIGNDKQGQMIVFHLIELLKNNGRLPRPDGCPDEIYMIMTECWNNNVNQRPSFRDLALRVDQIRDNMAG
SMILES,"pIC50 (JAK2; prior-art compound, stated in the background, read-out: IC50 against JAK2)",pIC50 (JAK3 [1]),pIC50 (JAK2; [3]),pIC50 (JAK3 [2])
"Cc1cc(Nc2nc(N3CCNCC3)nn3cccc23)[nH]n1 [Example 74 of the publication, reference compound]",7.51,6.34,,
"Cc1cc(Nc2nc(N3CCN(C(=O)Cc4ccc(C(F)(F)F)cc4C(F)(F)F)CC3)nn3cccc23)n[nH]1 [Example 134, 2-(4-((2,4-bis(trifluoromethyl)phenyl)acetyl)-1-piperazinyl)-N-(5-methyl-1H-pyrazol-3-yl)pyrrolo[2,1-f] [1,2,4]triazin-4-amine]",,,9.05,8.08
"Cc1cc(Nc2nc(N3CCN(C(=O)C(C)(C)NC(=O)OC(C)(C)C)CC3)nn3cccc23)n[nH]1 [Example 150, tert-butyl (1,1-dimethyl-2-(4-(4-((5-methyl-1H-pyrazol-3-yl)amino)pyrrolo[2,1-f][1,2,4]triazin-2-yl)-1-piperazinyl)-2-oxoethyl)carbamate]",,,6.15,4.86
"CCC(CO)(CO)C(=O)N1CCN(c2nc(Nc3cc(C)[nH]n3)c3cccn3n2)CC1 [Example 152, 2-ethyl-2-((4-(4-((5-methyl-1H-pyrazol-3-yl)amino)pyrrolo[2,1-f] [1,2,4]triazin-2-yl)-1-piperazinyl)carbonyl)-1,3-propanediol]",,,6.52,5.63
"Cc1cc(Nc2nc(N3CCN(C(=O)C(C)(C)N(C)C(=O)OC(C)(C)C)CC3)nn3cccc23)n[nH]1 [Example 158, tert-butyl(1,1-dimethyl-2-(4-(4-((5-methyl-1H-pyrazol-3-yl)amino)pyrrolo[2,1-f] [1,2,4]triazin-2-yl)-1-piperazinyl)-2-oxoethyl)methylcarbamate]",,,6.52,5.76
"CCC(O)(CC)C(=O)N1CCN(c2nc(Nc3cc(C)[nH]n3)c3cccn3n2)CC1 [Example 164, 3-((4-(4-((5-methyl-1H-pyrazol-3-yl)amino)pyrrolo[2,1-f] [1,2,4]triazin-2-yl)-1-piperazinyl)carbonyl)-3-pentanol]",,,6.62,5.83
"Cc1cc(Nc2nc(N3CCN(C(=O)C(C)(C)C)CC3)nn3cccc23)n[nH]1 [Example 168, 2-(4-(2,2-dimethylpropanoyl)-1-piperazinyl)-N-(5-methyl-1H-pyrazol-3-yl)pyrrolo[2,1-f][1,2,4]triazin-4-amine]",,,8.15,6.68
"Cc1ccc(C2(C(=O)N3CCN(c4nc(Nc5cc(C)[nH]n5)c5cccn5n4)CC3)CC2)cc1 [Example 187, 2-(4-((1-(4-methylphenyl)cyclopropyl)carbonyl)-1-piperazinyl)-N-(5-methyl-1H-pyrazol-3-yl)pyrrolo[2,1-f][1,2,4]triazin-4-amine]",,,8.17,6.70
"Cc1cc(Nc2nc(N3CCN(C(=O)c4ccccc4S(C)(=O)=O)CC3)nn3cccc23)n[nH]1 [Example 193, N-(5-methyl-1H-pyrazol-3-yl)-2-(4-(2-(methylsulfonyl)benzoyl)-1-piperazinyl)pyrrolo[2,1-f][1,2,4]triazin-4-amine]",,,6.89,5.52
"Cc1cc(Nc2nc(N3CCN(C(=O)c4ccccc4-c4ccccc4)CC3)nn3cccc23)n[nH]1 [Example 200, 2-(4-(2-biphenylylcarbonyl)-1-piperazinyl)-N-(5-methyl-1H-pyrazol-3-yl)pyrrolo[2,1-f][1,2,4]triazin-4-amine]",,,8.14,6.92
"Cc1cc(Nc2nc(N3CCN(C(=O)[C@@](C)(O)c4ccccc4)CC3)nn3cccc23)n[nH]1 [Example 211, (2S)-1-(4-(4-((5-methyl-1H-pyrazol-3-yl)amino)pyrrolo[2,1-f][1,2,4]triazin-2-yl)-1-piperazinyl)-1-oxo-2-phenyl-2-propanol]",,,6.23,5.02
